Data: publication PMC5526999, “Mass Spectrometry Imaging proves differential absorption profiles of well-characterised permeability markers along the crypt-villus axis” (Scientific Reports, 2017)

Key:
[1] = LC-ESI MS/MS quantification of drug concentration in intestinal tissue homogenates after oral cassette administration; type: in vivo, rat
Procedure: Male rats (Han-Wistar, ~ 100 days old, body-weight ~ 300 g) were used in this study. […] All experiments were performed in accordance with relevant guidelines and regulations, the animal work was approved by the Local Animal Research Ethics Board of Gothenburg, Sweden. […] Four animals were dosed in this study, and non-dosed tissue was prepared from control rats in parallel. […] Therefore, in the present study we focussed on the concept of “vertical” absorption gradients along the crypt-villous axis, which has not been studied earlier. The intestine was removed under anaesthesia using isoflurane (Forene, Abbott, USA), to ensure full viability and oxygenation of the tissue until the moment of excision. Animals were sacrificed without regaining consciousness by aortal incision and an overdose of isoflurane. Immediately after excision, intestines were divided into 10 cm long segments and each segment was carefully washed with Krebs-Bicarbonate-Ringer buffer (KBR) from the stomach to the large intestine (additional information in Supplementary Data). The first 5–10 mm of each segment were cut, quickly weighed and collected in homogenization tubes for subsequent extraction and LCMS analysis of total drug concentration in the gut-wall. The next 8–9 cm of each segment were prepared for MALDI-MSI analysis. […] The CMC gels quickly on wet-ice/isopropanol and provides tissue support during the subsequent cryosectioning. All samples were stored at −20 °C until cryosectioning. […] The supernatants were transferred to fresh vials and centrifuged again under the same conditions. […] The samples were analysed by LC-MS/MS and quantified against a calibration standard curve. The LC-MS/MS analysis was performed using an electrospray ionization tandem quadrupole mass spectrometer (Quattro Premier, Waters, USA) in positive ionization mode. The mass spectrometer was integrated with an ultra-performance liquid chromatography (UPLC) system (Acquity, Waters) assisted with a column manager. Chromatography was performed on a column (Acquity UPLC HSS T3, 2.1 × 50 mm) at 40 °C. The flow rate was 1000 µL/min and the injection volume was 5 µL. The mobile phases consisted of A: water, 0.2% (v/v) formic acid and 2% (v/v) acetonitrile and B: acetonitrile, 0.2% (v/v) formic acid. […] Data was acquired using multiple reaction monitoring (MRM) and mass transitions determined by QuanOptimize (Waters). Instrument control and data processing was performed using MassLynx 4.1 software including QuanLynx (Waters).

[2] = parameters: method as in PMID 1673839, PMID 11259831, PMID 9523990; conditions: ref [1], [15] and [48]; cited from earlier work
[3] = MALDI-MSI of drug distribution in rat small intestine after oral cassette administration; type: in vivo; conditions: oral 10 µmol/kg
Procedure: Male rats (Han-Wistar, ~ 100 days old, body-weight ~ 300 g) were used in this study. […] All experiments were performed in accordance with relevant guidelines and regulations, the animal work was approved by the Local Animal Research Ethics Board of Gothenburg, Sweden. […] Four animals were dosed in this study, and non-dosed tissue was prepared from control rats in parallel. […] Therefore, in the present study we focussed on the concept of “vertical” absorption gradients along the crypt-villous axis, which has not been studied earlier. The intestine was removed under anaesthesia using isoflurane (Forene, Abbott, USA), to ensure full viability and oxygenation of the tissue until the moment of excision. Animals were sacrificed without regaining consciousness by aortal incision and an overdose of isoflurane. Immediately after excision, intestines were divided into 10 cm long segments and each segment was carefully washed with Krebs-Bicarbonate-Ringer buffer (KBR) from the stomach to the large intestine (additional information in Supplementary Data). The first 5–10 mm of each segment were cut, quickly weighed and collected in homogenization tubes for subsequent extraction and LCMS analysis of total drug concentration in the gut-wall. The next 8–9 cm of each segment were prepared for MALDI-MSI analysis. […] The CMC gels quickly on wet-ice/isopropanol and provides tissue support during the subsequent cryosectioning. All samples were stored at −20 °C until cryosectioning. The embedded samples were attached and positioned with OCT-compound (TissueTek) to the specimen holder of a microtome (Cryo-Star HM 560 M, Microm International, Germany) set to −20 °C. The samples were sectioned at 10 µm thickness. […] A control tissue section from the same intestinal region from non-dosed animal was placed on each slide to enable a direct comparison to be made. All slides were kept at −80 °C until MALDI-MSI analysis. Tissue sections were also stained using haematoxylin and eosin (H&E) following a standard histological protocol for fresh frozen tissues. […] Additional optimization was performed using a robotic matrix sprayer (TM-Sprayer, HTX Technologies, USA) in order to minimize delocalization and crystal size, while still maintaining adequate extraction of compound from the tissue. […] An optical image (9600 dpi) of the glass slide was acquired using a flatbed scanner (Epson perfection V500). The tissue sections were coated with DHB (35 mg/ml, 70% ACN, 0.2% TFA) using a robotic sprayer with a flow of rate 70 µl/min, stage speed of 1100 mm/min, track spacing of 2 mm (crisscross pattern), nitrogen pressure 6 psi, and spray nozzle temperature set to 95 °C for 8 passes. […] FlexImaging 4.0 (Bruker Daltonics) and msIQuant 2.0 was used for data analysis, normalization (to total ion count) and ion image extraction.

Caco-2 = test system: Caco-2; parameters: method as in PMID 1673839, PMID 11259831, PMID 9523990; conditions: ref [1], [15] and [48]; cited from earlier work
[4] = no reference given; cited from earlier work
[5] = oral 10 µmol/kg, 20 min post administration
[6] = 20 min, 30 cm along the intestine, line graph along crypt-villus axis

Structure (SMILES)	distance from the pyloro-duodenal junction of highest concentration (LC-ESI MS/MS homogenates) ([1]; oral 1 µmol/kg, 20 min post administration) [cm]	intestinal sample with highest concentration [1, 5] [cm]	Ion Class [2]	intensity profile from villus tip to base (line graph) ([3]; 20 min, 30 cm along the intestine)	localisation across and within the villi (transverse profile) ([3]; 20 min, profile perpendicular to the villus axis)	lower tissue concentration at 45 min compared to 20 min (LC-MS/MS) ([1]; male, Han-Wistar, rat, in vivo, po)	Caco-2 Papp (Caco-2)	distance over which the gradient from villus tip towards crypt region runs [3, 6] [µm]	Tmax in the rat [4] [min]	lower tissue concentration at 45 min compared to 20 min (LC-MS/MS) ([1]; oral 10 µmol/kg, 40 cm sample)	lower level at 45 min compared to 20 min (MSI) ([3]; 40 cm sample)	distance from the villus tips of significant reduction in abundance [3, 6]
CC(C)NCC(O)COc1ccc(CC(N)=O)cc1 (stereo not drawn) [Atenolol]	50	20	Base	maintain similar intensities all the way from the villus tip to the basal regions	localized primarily between the villi							
COCCc1ccc(OCC(O)CNC(C)C)cc1 (stereo not drawn) [Metoprolol]						about 3 fold	27.0 1E-6.cm/s	200	< 20			
CC(C)NCC(O)COc1cccc2ccccc12 (stereo not drawn) [Propranolol]		30	Base				41.9 1E-6.cm/s			about 3 fold	about 3 fold	400–500 µm
